Consider 9 compounds from PubChem BioAssay (NCI).

Among the test systems are SF-295 CNS; SR leukemia; A549 NSCLC; NCI-H23 lung; LOX IMVI melanoma; HCT-116 colon; RXF 393 renal; U251 CNS; CCRF-CEM leukemia; MALME-3M melanoma.
Common to all, as to experiment: inhibition of tumour cell growth, NCI panel, 48 h

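Exposure lasted 48 hours, with cells grown in 96-well plates and compounds tested at five concentrations. At the GI50, growth is halved. At the TGI there is no net growth.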

Consider `CNC(=O)c1ccc(Nc2nc(OC3CCCC3)c3c(-c4ccc5nc(C)oc5c4)c[nH]c3n2)c(OC)c1`, for which the TGI with SF-295 CNS is greater than 100 µM; in the assay on SR leukemia, greater than 100 µM; with A549 NSCLC, greater than 100 µM; in the assay on NCI-H23 lung, greater than 100 µM; in the assay with LOX IMVI melanoma, greater than 100 µM; in the assay on HCT-116 colon, greater than 60.5 µM. The TGI in the assay with RXF 393 renal is greater than 100 µM; in the assay on U251 CNS it was greater than 100 µM; in the assay on CCRF-CEM leukemia it was greater than 44.4 µM; in the assay with MALME-3M melanoma it was greater than 100 µM. The GI50 in the assay on SR leukemia was 0.0861 µM; in the assay with A549 NSCLC it was 0.201 µM; in the assay with NCI-H23 lung it was 4.55 µM; with LOX IMVI melanoma it was 0.381 µM; in the assay on HCT-116 colon, 0.409 µM; in the assay on RXF 393 renal, greater than 100 µM. For the same compound, the GI50 was 15.3 µM in the assay with U251 CNS, 0.124 µM in the assay on CCRF-CEM leukemia and 21.6 µM with MALME-3M melanoma.

Regarding `O=C1CN2CCC1C/C2=C\c1ccnc2c(Cl)cccc12` (configuration not stated), the GI50 in the assay with SF-295 CNS is 46.5 µM; in the assay with SR leukemia it was 36.5 µM; in the assay with A549 NSCLC, greater than 100 µM; in the assay with NCI-H23 lung, 57 µM; in the assay on LOX IMVI melanoma it was 52.2 µM; in the assay with HCT-116 colon, 45 µM. For the same compound, the GI50 was greater than 100 µM in the assay on RXF 393 renal, 64.4 µM in the assay with U251 CNS, 36.5 µM in the assay with CCRF-CEM leukemia and 91.9 µM with MALME-3M melanoma. Moreover, the TGI in the assay on SF-295 CNS, in the assay with SR leukemia, in the assay on A549 NSCLC, in the assay with NCI-H23 lung, in the assay with LOX IMVI melanoma and in the assay with HCT-116 colon was greater than 100 µM in each case. Further, the TGI with RXF 393 renal, in the assay on U251 CNS, in the assay with CCRF-CEM leukemia and in the assay with MALME-3M melanoma was greater than 100 µM throughout.

Regarding `CC(=O)Oc1cc2c(=O)oc3c(OC(C)=O)c(OC(C)=O)c(OC(C)=O)c4c(=O)oc(c1OC(C)=O)c2c34`, the TGI with SF-295 CNS was 52.9 µM; in the assay on SR leukemia it was greater than 100 µM; with A549 NSCLC it was greater than 100 µM; in the assay with NCI-H23 lung, greater than 100 µM; in the assay with LOX IMVI melanoma it was 32.6 µM; with HCT-116 colon, 52.6 µM. The TGI in the assay with RXF 393 renal is 32 µM; with U251 CNS, greater than 100 µM; in the assay on CCRF-CEM leukemia it was 63.3 µM; in the assay with MALME-3M melanoma, greater than 100 µM.

For the compound `CC(=O)[CH-]C(C)=O.CC(=O)[CH-]C(C)=O.CC(=O)[CH-]C(C)=O.[Cl-].[Hf+4]`, the GI50 in the assay with SF-295 CNS, in the assay with SR leukemia, in the assay with A549 NSCLC, in the assay on NCI-H23 lung, in the assay on LOX IMVI melanoma and in the assay on HCT-116 colon was greater than 100 µM throughout. Moreover, the GI50 with RXF 393 renal, in the assay on U251 CNS, with CCRF-CEM leukemia and in the assay on MALME-3M melanoma was greater than 100 µM in each case. The TGI in the assay with SF-295 CNS, in the assay on SR leukemia, with A549 NSCLC, in the assay on NCI-H23 lung, in the assay on LOX IMVI melanoma and in the assay on HCT-116 colon was greater than 100 µM throughout. In addition, the TGI in the assay on RXF 393 renal, with U251 CNS, in the assay with CCRF-CEM leukemia and with MALME-3M melanoma was greater than 100 µM throughout.

As to `C[C@]12CC[C@@H]3c4ccc(OCC(=O)O)cc4CC[C@H]3[C@@H]1CCC2=O`, the TGI in the assay on SF-295 CNS, with SR leukemia, with A549 NSCLC, in the assay on NCI-H23 lung, in the assay with LOX IMVI melanoma and in the assay with HCT-116 colon was greater than 100 µM each time. Besides, the TGI in the assay with RXF 393 renal is greater than 100 µM; in the assay with U251 CNS, greater than 100 µM; with CCRF-CEM leukemia it was 4.48 µM; with MALME-3M melanoma it was greater than 100 µM.

Turning to `O=C(Nc1nc(-c2ccc(Cl)cc2)cs1)c1ccc(O)c(O)c1`, the GI50 was 11.5 µM in the assay with SF-295 CNS; 2.09 µM in the assay on SR leukemia; 2.91 µM in the assay on A549 NSCLC; 4.27 µM with NCI-H23 lung; 4.26 µM in the assay on LOX IMVI melanoma; 3.71 µM with HCT-116 colon. The GI50 with RXF 393 renal is 3.82 µM; with U251 CNS it was 3 µM; with CCRF-CEM leukemia it was 2.22 µM; with MALME-3M melanoma, 5.73 µM. Besides, the TGI is 26.2 µM with SF-295 CNS; 9.26 µM in the assay on SR leukemia; 14.3 µM in the assay on A549 NSCLC; 20.3 µM in the assay with NCI-H23 lung; 15.7 µM in the assay on LOX IMVI melanoma; 14.3 µM in the assay on HCT-116 colon. Also, the TGI in the assay with RXF 393 renal was determined as 17 µM; with U251 CNS it was 13.7 µM; with CCRF-CEM leukemia it was 9.35 µM; in the assay on MALME-3M melanoma it was 22.2 µM.

For the compound `O=C1NC(=O)[C@H]2C3C=CC([C@@H]12)[C@@H]1C(=O)NC(=O)[C@H]31`, the TGI in the assay with SF-295 CNS, with SR leukemia, in the assay on A549 NSCLC, with NCI-H23 lung, with LOX IMVI melanoma and in the assay with HCT-116 colon was greater than 100 µM throughout. Moreover, the TGI in the assay with RXF 393 renal, in the assay on U251 CNS, in the assay on CCRF-CEM leukemia and with MALME-3M melanoma was greater than 100 µM in each case.

As to `COc1cc2c3c(n(CCCn4ccnc4)c(=O)c2cc1OC)-c1ccccc1C3=O`, the GI50 with SF-295 CNS was less than 0.01 µM; with SR leukemia it was 0.0252 µM; with A549 NSCLC, less than 0.0337 µM; with NCI-H23 lung, less than 0.0282 µM; in the assay with LOX IMVI melanoma, less than 0.0124 µM; in the assay with HCT-116 colon, less than 0.0135 µM. The GI50 with RXF 393 renal was less than 0.01 µM; with U251 CNS, less than 0.0122 µM; in the assay with CCRF-CEM leukemia, less than 0.01 µM; with MALME-3M melanoma, 1.06 µM. Further, the TGI in the assay on SF-295 CNS was found to be 0.218 µM; in the assay with SR leukemia, 0.0583 µM; in the assay on A549 NSCLC, 0.413 µM; in the assay with NCI-H23 lung it was 0.0695 µM; in the assay on LOX IMVI melanoma, 0.0385 µM; in the assay on HCT-116 colon, 0.153 µM. The TGI was 0.57 µM with U251 CNS and greater than 60.8 µM in the assay on MALME-3M melanoma.

As to `O=C(Nc1cccc(-c2nc3ccccc3[nH]2)c1)c1cccc(NC(=O)c2ccco2)c1`, the GI50 with SF-295 CNS is 1.92 µM; in the assay with SR leukemia, 2.33 µM; in the assay with A549 NSCLC, 1.88 µM; with NCI-H23 lung, 2.15 µM; in the assay with LOX IMVI melanoma it was 1.93 µM; in the assay on HCT-116 colon, 1.74 µM. The GI50 was 1.51 µM in the assay with RXF 393 renal, 1.73 µM in the assay with U251 CNS, 3.99 µM in the assay with CCRF-CEM leukemia and 2.11 µM with MALME-3M melanoma. Besides, the TGI in the assay with SF-295 CNS came to 4.41 µM; in the assay with SR leukemia it was 6.53 µM; in the assay with A549 NSCLC, 3.95 µM; with NCI-H23 lung, 4.94 µM; in the assay on LOX IMVI melanoma it was 3.88 µM; in the assay on HCT-116 colon it was 3.11 µM. Moreover, the TGI in the assay on RXF 393 renal is 3.55 µM; in the assay with U251 CNS it was 3.23 µM; in the assay on CCRF-CEM leukemia, 16.1 µM; with MALME-3M melanoma it was 4.34 µM.
